Assays:
[1] = test system: Botryotinia fuckeliana (Botrytis cinerea); test: Botryotinia fuckeliana (Botrytis cinerea) / liquid culture (gray mould); assay type: cell-based; details: growth inhibition photometrically 3-4 days after application, vs untreated control
Protocol: Botryotinia fuckeliana (Botrytis cinerea)/Liquid Culture (Gray Mould)
(§1) Conidia of the fungus from cryogenic storage are directly mixed into nutrient broth (Vogels broth). After placing a (DMSO) solution of test compound into a microtiter plate (96-well format), the nutrient broth containing the fungal spores is added. The test plates are incubated at 24° C. and the inhibition of growth is determined photometrically 3-4 days after application.

Fusarium culmorum [2] = test: microbe, parasite or virus in culture; assay type: cell-based; details: read-out: control of Fusarium culmorum
Fusarium culmorum [3] = test: whole plant or invertebrate; assay type: in vivo, Fusarium culmorum on wheat spikelets cv. Monsun; details: in Triticum aestivum, read-out: control of Fusarium culmorum
[4] = test system: Glomerella lagenarium (Colletotrichum lagenarium); test: Glomerella lagenarium (Colletotrichum lagenarium) / liquid culture (anthracnose); assay type: cell-based; details: Colletotrichum orbiculare, growth inhibition photometrically 3-4 days after application, vs untreated control
Protocol: as §1, with “(PDB potato dextrose” for “(Vogels”, “measured” for “determined”

[5] = test system: Magnaporthe grisea (Pyricularia oryzae); test: microbe, parasite or virus in culture; assay type: cell-based; details: read-out: control of Magnaporthe grisea
[6] = test system: Magnaporthe grisea (Pyricularia oryzae); test: whole plant or invertebrate; assay type: in vivo, Magnaporthe grisea on rice leaf segments cv. Ballila; details: foliar, read-out: control of Magnaporthe grisea
[7] = test system: Mycosphaerella graminicola (Septoria tritici); test: Mycosphaerella graminicola (Septoria tritici) / liquid culture (Septoria blotch); assay type: cell-based; details: Zymoseptoria tritici, growth inhibition photometrically 4-5 days after application, vs untreated control
Protocol: Mycosphaerella graminicola (Septoria tritici)/Liquid Culture (Septoria Blotch)
as §1, with “(PDB potato dextrose” for “(Vogels”, “4-5” for “3-4”

[8] = test system: Monographella nivalis (Microdochium nivale); test: Monographella nivalis (Microdochium nivale) / liquid culture (foot rot cereals); assay type: cell-based; details: growth inhibition photometrically 4-5 days after application, vs untreated control
Protocol: Monographella nivalis (Microdochium nivale)/Liquid Culture (Foot Rot Cereals)
as §1, with “(PDB potato dextrose” for “(Vogels”, “4-5” for “3-4”

Sclerotinia sclerotiorum = Sclerotinia sclerotiorum / liquid culture (cottony rot); assay type: cell-based; details: growth inhibition photometrically 3-4 days after application, vs untreated control
Protocol: Sclerotinia sclerotiorum/Liquid Culture (Cottony Rot)
as §1, with “Mycelia fragments of a newly grown liquid culture” for “Conidia”, “fungus” for “fungus from cryogenic storage”, “format)” for “format),”, “material” for “spores”

C=C(Cl)C[C@@H](Cc1ccccc1)C(=O)Nc1cc2cccc(F)c2nc1C [Compound F-25, (2R)-2-benzyl-4-chloro-N-(8-fluoro-2-methyl-3-quinolyl)pent-4-enamide]
≥ 80%: inhibition of growth at 200 ppm [1] | inhibition of growth at 200 ppm (Fusarium culmorum [2]) | pest or weed control at 200 ppm (Fusarium culmorum [3]) | inhibition of growth at 200 ppm [4] | inhibition of growth at 200 ppm [5] | pest or weed control at 200 ppm [6] | inhibition of growth at 200 ppm [7]

Cc1c(NC(=O)[C@@H](Cc2ccccc2)CC2(C)CC2)cnc2c(F)cccc12 [Compound F-40, (2R)-2-benzyl-N-(8-fluoro-4-methyl-3-quinolyl)-3-(1-methylcyclopropyl)propanamide]
≥ 80%: inhibition of growth at 200 ppm [1] | inhibition of growth at 200 ppm (Fusarium culmorum [2]) | pest or weed control at 200 ppm (Fusarium culmorum [3]) | inhibition of growth at 200 ppm [4] | inhibition of growth at 200 ppm [8] | inhibition of growth at 200 ppm [5] | inhibition of growth at 200 ppm [7] | inhibition of growth at 20 ppm (Sclerotinia sclerotiorum)

C=C(Cl)C[C@@H](Cc1ccccc1)C(=O)Nc1cnc2c(F)cccc2c1C [Compound F-27, (2R)-2-benzyl-4-chloro-N-(8-fluoro-4-methyl-3-quinolyl)pent-4-enamide]
≥ 80%: inhibition of growth at 200 ppm [1] | inhibition of growth at 200 ppm [4] | inhibition of growth at 200 ppm [8] | inhibition of growth at 200 ppm [5] | inhibition of growth at 200 ppm [7]

Reference: US20220030867A1 (priority 2018, published 2022)
